Assay results taken from US9452986B2, “6-heteroaryloxy- or 6-aryloxy-quinoline-2-carboxamides and method of use” (AbbVie Inc., priority 2014, dated 2016).

Target: recombinant human Nav1.7 (Homo sapiens (Human), UniProt Q15858)
Test: FRET-based membrane potential assay, recombinant human sodium channel Nav1.7
Format: cell-based
Settings: HEK293 cells stably expressing recombinant human Nav1.7; veratridine + scorpion venom depolarization; read-out: FRET-Membrane Potential Nav1.7 IC50
How it was run: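 Channel activation used veratridine at its EC80, set by a dilution curve each experiment, together with Leiurus scorpion venom, added 3 min after compound. Membrane-potential ratio signals from FLIPR Tetra in HEPES-buffered HBSS were fitted to a four-parameter Hill equation for percent inhibition and IC50.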

recombinant human Nav1.7, sequence (Q15858 whole entry): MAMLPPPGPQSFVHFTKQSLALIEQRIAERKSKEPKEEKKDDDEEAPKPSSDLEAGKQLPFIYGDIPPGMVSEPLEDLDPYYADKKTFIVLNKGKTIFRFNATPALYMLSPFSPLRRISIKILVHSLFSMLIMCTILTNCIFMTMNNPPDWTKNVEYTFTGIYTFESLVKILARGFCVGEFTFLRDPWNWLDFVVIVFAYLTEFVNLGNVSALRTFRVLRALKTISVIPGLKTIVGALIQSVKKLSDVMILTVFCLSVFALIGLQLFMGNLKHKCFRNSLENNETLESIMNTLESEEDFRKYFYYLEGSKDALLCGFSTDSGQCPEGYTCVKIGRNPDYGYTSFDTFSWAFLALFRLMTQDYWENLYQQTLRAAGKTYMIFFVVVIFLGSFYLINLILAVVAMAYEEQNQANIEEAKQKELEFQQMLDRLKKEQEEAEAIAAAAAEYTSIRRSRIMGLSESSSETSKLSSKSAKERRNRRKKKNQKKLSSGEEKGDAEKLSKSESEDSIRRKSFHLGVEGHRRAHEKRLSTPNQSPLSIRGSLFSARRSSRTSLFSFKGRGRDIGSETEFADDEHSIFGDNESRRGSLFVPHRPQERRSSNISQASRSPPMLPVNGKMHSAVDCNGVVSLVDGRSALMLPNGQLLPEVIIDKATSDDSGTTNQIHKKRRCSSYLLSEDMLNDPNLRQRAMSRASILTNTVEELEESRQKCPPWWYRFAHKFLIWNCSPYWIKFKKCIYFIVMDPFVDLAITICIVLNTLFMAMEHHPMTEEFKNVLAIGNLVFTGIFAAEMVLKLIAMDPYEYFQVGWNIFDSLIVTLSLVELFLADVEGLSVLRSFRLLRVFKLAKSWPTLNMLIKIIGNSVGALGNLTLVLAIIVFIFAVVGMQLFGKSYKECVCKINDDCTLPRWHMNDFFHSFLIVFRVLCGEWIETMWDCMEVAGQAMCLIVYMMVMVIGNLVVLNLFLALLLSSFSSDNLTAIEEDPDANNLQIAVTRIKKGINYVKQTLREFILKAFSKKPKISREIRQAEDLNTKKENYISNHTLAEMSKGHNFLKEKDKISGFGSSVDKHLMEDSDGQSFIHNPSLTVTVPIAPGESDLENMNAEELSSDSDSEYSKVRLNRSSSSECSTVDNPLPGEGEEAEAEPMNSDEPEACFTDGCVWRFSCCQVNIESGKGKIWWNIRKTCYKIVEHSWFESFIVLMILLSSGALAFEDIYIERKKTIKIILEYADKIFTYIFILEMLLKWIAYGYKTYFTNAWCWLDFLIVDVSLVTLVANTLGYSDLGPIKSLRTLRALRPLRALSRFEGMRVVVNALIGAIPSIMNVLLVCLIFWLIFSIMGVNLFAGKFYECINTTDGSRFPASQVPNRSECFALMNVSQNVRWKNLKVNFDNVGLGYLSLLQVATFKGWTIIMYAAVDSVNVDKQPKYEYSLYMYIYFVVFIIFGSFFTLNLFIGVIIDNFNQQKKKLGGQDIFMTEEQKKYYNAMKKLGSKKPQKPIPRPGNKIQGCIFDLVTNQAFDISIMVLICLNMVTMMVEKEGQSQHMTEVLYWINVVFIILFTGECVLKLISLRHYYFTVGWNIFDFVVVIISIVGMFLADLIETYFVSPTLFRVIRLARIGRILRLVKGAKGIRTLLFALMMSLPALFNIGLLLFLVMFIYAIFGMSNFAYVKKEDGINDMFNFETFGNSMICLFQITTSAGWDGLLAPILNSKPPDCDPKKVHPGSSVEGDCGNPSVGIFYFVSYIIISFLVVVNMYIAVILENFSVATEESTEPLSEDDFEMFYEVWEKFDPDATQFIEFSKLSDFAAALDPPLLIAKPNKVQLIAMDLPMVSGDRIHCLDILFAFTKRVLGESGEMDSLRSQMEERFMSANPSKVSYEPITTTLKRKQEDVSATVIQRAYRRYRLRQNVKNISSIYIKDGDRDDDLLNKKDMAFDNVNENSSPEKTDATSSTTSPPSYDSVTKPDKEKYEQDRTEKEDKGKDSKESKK

| SMILES | IC50 [µM] |
| --- | --- |
| CC(C)S(=O)(=O)N1CCN(C(=O)c2ccc3cc(Oc4ccc(C(F)(F)F)cn4)ccc3n2)CC1 [Example 177, [4-(isopropylsulfonyl)piperazin-1-yl](6-{[5-(trifluoromethyl)pyridin-2-yl]oxy}quinolin-2-yl)methanone] | 2.68 |
| O=C(c1ccc2cc(Oc3ccc(C(F)(F)F)cn3)ccc2n1)N1C[C@@H](F)C[C@@H]1c1cc(F)ccc1F [Example 179, [(2R,4S)-2-(2,5-difluorophenyl)-4-fluoropyrrolidin-1-yl](6-{[5-(trifluoromethyl)pyridin-2-yl]oxy}quinolin-2-yl)methanone] | 0.684 |
| O=C(c1ccc2cc(Oc3ccc(C(F)(F)F)cn3)ccc2n1)N1C[C@H](F)C[C@@H]1c1cc(F)ccc1F [Example 180, [(2R,4R)-2-(2,5-difluorophenyl)-4-fluoropyrrolidin-1-yl](6-{[5-(trifluoromethyl)pyridin-2-yl]oxy}quinolin-2-yl)methanone] | 0.675 |
| O=C(c1ccc2cc(Oc3ccc(C(F)(F)F)cn3)ccc2n1)N1CCN(CC(F)(F)F)CC1 [Example 181, [4-(2,2,2-trifluoroethyl)piperazin-1-yl](6-{[5-(trifluoromethyl)pyridin-2-yl]oxy}quinolin-2-yl)methanone] | 3.47 |
| O=C(c1ccc2cc(Oc3ccc(C(F)(F)F)cn3)ccc2n1)N1CCN(c2ccccn2)CC1 [Example 182, [4-(pyridin-2-yl)piperazin-1-yl](6-{[5-(trifluoromethyl)pyridin-2-yl]oxy}quinolin-2-yl)methanone] | 0.69 |
| O=C(c1ccc2cc(Oc3ccc(C(F)(F)F)cn3)ccc2n1)N1CCN(S(=O)(=O)c2cccnc2)CC1 [Example 183, [4-(pyridin-3-ylsulfonyl)piperazin-1-yl](6-{[5-(trifluoromethyl)pyridin-2-yl]oxy}quinolin-2-yl)methanone] | > 20 |
| O=C(c1ccc2cc(Oc3ccc(C(F)(F)F)cn3)ccc2n1)N1CCN(S(=O)(=O)N2CCCCC2)CC1 [Example 184, [4-(piperidin-1-ylsulfonyl)piperazin-1-yl](6-{[5-(trifluoromethyl)pyridin-2-yl]oxy}quinolin-2-yl)methanone] | 0.923 |
| O=C(c1ccc2cc(Oc3ccc(C(F)(F)F)cn3)ccc2n1)N1CCN(S(=O)(=O)N2CCOCC2)CC1 [Example 185, [4-(morpholin-4-ylsulfonyl)piperazin-1-yl](6-{[5-(trifluoromethyl)pyridin-2-yl]oxy}quinolin-2-yl)methanone] | > 20 |
| COC(=O)N1CCN(C(=O)c2ccc3cc(Oc4ccc(C(F)(F)F)cn4)ccc3n2)CC1 [Example 186, methyl 4-[(6-{[5-(trifluoromethyl)pyridin-2-yl]oxy}quinolin-2-yl)carbonyl]piperazine-1-carboxylate] | 3.97 |
| CN(C)C(=O)N1CCN(C(=O)c2ccc3cc(Oc4ccc(C(F)(F)F)cn4)ccc3n2)CC1 [Example 187, N,N-dimethyl-4-[(6-{[5-(trifluoromethyl)pyridin-2-yl]oxy}quinolin-2-yl)carbonyl]piperazine-1-carboxamide] | > 20 |
| CN1C(=O)CN(C(=O)c2ccc3cc(Oc4ccc(C(F)(F)F)cn4)ccc3n2)CC12COC2 [Example 188, 5-methyl-8-[(6-{[5-(trifluoromethyl)pyridin-2-yl]oxy}quinolin-2-yl)carbonyl]-2-oxa-5,8-diazaspiro[3.5]nonan-6-one] | 9.53 |
| O=C(c1ccc2cc(Oc3ccc(C(F)(F)F)cn3)ccc2n1)N1CC2CNCCN2C1=O (stereo not shown) [Example 189, 2-[(6-{[5-(trifluoromethyl)pyridin-2-yl]oxy}quinolin-2-yl)carbonyl]hexahydroimidazo[1,5-a]pyrazin-3(2H)-one] | 15.1 |
| O=C(c1ccc2cc(Oc3ccc(C(F)(F)F)cn3)ccc2n1)N1CCC(F)(F)C(O)C1 (stereo not shown) [Example 193, (4,4-difluoro-3-hydroxypiperidin-1-yl)(6-{[5-(trifluoromethyl)pyridin-2-yl]oxy}quinolin-2-yl)methanone] | 4.25 |
| C[C@H]1N(C(=O)c2ccc3cc(Oc4ccc(C(F)(F)F)cn4)ccc3n2)CC1(C)C [Example 197, (6-{[5-(trifluoromethyl)pyridin-2-yl]oxy}quinolin-2-yl)[(2R)-2,3,3-trimethylazetidin-1-yl]methanone] | 2.72 |
| CC1(O)CN(C(=O)c2ccc3cc(Oc4ccc(C(F)(F)F)cn4)ccc3n2)C1 [Example 198, (3-hydroxy-3-methylazetidin-1-yl)(6-{[5-(trifluoromethyl)pyridin-2-yl]oxy}quinolin-2-yl)methanone] | 2.21 |
| CC1(Oc2ccccc2)CN(C(=O)c2ccc3cc(Oc4ccc(C(F)(F)F)cn4)ccc3n2)C1 [Example 200, (3-methyl-3-phenoxyazetidin-1-yl)(6-{[5-(trifluoromethyl)pyridin-2-yl]oxy}quinolin-2-yl)methanone] | > 20 |
| O=C(c1ccc2cc(Oc3ccc(C(F)(F)F)cn3)ccc2n1)N1CC(n2ccnc2)C1 [Example 202, [3-(1H-imidazol-1-yl)azetidin-1-yl](6-{[5-(trifluoromethyl)pyridin-2-yl]oxy}quinolin-2-yl)methanone] | 0.911 |
| O=C(c1ccc2cc(Oc3ccc(C(F)(F)F)cn3)ccc2n1)N1CC(Oc2ccc(Cl)cc2)C1 [Example 203, [3-(4-chlorophenoxy)azetidin-1-yl](6-{[5-(trifluoromethyl)pyridin-2-yl]oxy}quinolin-2-yl)methanone] | > 20 |
| O=C(c1ccc2cc(Oc3ccc(C(F)(F)F)cn3)ccc2n1)N1CC(n2cncn2)C1 [Example 204, [3-(1H-1,2,4-triazol-1-yl)azetidin-1-yl](6-{[5-(trifluoromethyl)pyridin-2-yl]oxy}quinolin-2-yl)methanone] | 1.63 |
| C[C@@H]1N(C(=O)c2ccc3cc(Oc4ccc(C(F)(F)F)cn4)ccc3n2)CC1(C)C [Example 205, (6-{[5-(trifluoromethyl)pyridin-2-yl]oxy}quinolin-2-yl)[(2S)-2,3,3-trimethylazetidin-1-yl]methanone] | 3.17 |
| O=C(c1ccc2cc(Oc3ccc(C(F)(F)F)cn3)ccc2n1)N1CC(Oc2ccc(Br)cc2)C1 [Example 206, [3-(4-bromophenoxy)azetidin-1-yl](6-{[5-(trifluoromethyl)pyridin-2-yl]oxy}quinolin-2-yl)methanone] | > 20 |
| CC(C)(O)c1ccc(Oc2ccc3nc(C(=O)N4CCNCC4)ccc3c2)cc1 [Example 209, {6-[4-(2-hydroxypropan-2-yl)phenoxy]quinolin-2-yl}(piperazin-1-yl)methanone] | 8.86 |
| NC(=O)c1ccc2cc(Oc3ccc(C(F)(F)F)cn3)ccc2n1 [Example 210, 6-{[5-(trifluoromethyl)pyridin-2-yl]oxy}quinoline-2-carboxamide] | > 20 |
| CN1CCN(C(=O)c2ccc3cc(Oc4ccc(C(F)(F)F)cn4)ccc3n2)CC1 [Example 211, (4-methylpiperazin-1-yl)(6-{[5-(trifluoromethyl)pyridin-2-yl]oxy}quinolin-2-yl)methanone] | 1.93 |
| O=C(c1ccc2cc(Oc3ccc(C(F)(F)F)cn3)ccc2n1)N1CCC(=O)N2C[C@@H](O)C[C@H]2C1 [Example 212, (8S,9aS)-8-hydroxy-2-[(6-{[5-(trifluoromethyl)pyridin-2-yl]oxy}quinolin-2-yl)carbonyl]octahydro-5H-pyrrolo[1,2-a][1,4]diazepin-5-one] | > 20 |
| O=C(c1ccc2cc(Oc3ccc(C(F)(F)F)cn3)ccc2n1)N1CC[C@@H]2CN[C@@H]2C1 [Example 213, (1S,6R)-3,8-diazabicyclo[4.2.0]oct-3-yl(6-{[5-(trifluoromethyl)pyridin-2-yl]oxy}quinolin-2-yl)methanone] | 9.4 |
| CS(=O)(=O)c1ccc(Oc2ccc3nc(C(=O)N4CCNCC4)ccc3c2)cc1 [Example 214, {6-[4-(methylsulfonyl)phenoxy]quinolin-2-yl}(piperazin-1-yl)methanone] | > 20 |

Same assay, conditions: read-out: FRET-Membrane Potential Nav1.7 IC50

| SMILES | IC50 [µM] |
| --- | --- |
| CS(=O)(=O)N1CCN(C(=O)c2ccc3cc(Oc4ccc(C(F)(F)F)cn4)ccc3n2)CC1 [Example 176, [4-(methylsulfonyl)piperazin-1-yl](6-{[5-(trifluoromethyl)pyridin-2-yl]oxy}quinolin-2-yl)methanone] | 8.77 |
| O=C(c1ccc2cc(Oc3ccc(C(F)(F)F)cn3)ccc2n1)N1CCN(S(=O)(=O)c2ccccc2)CC1 [Example 178, [4-(phenylsulfonyl)piperazin-1-yl](6-{[5-(trifluoromethyl)pyridin-2-yl]oxy}quinolin-2-yl)methanone] | 0.523 |
| O=C(c1ccc2cc(Oc3ccc(C(F)(F)F)cn3)ccc2n1)N1CCC(O)C(F)(F)C1 (stereo not shown) [Example 190, (3,3-difluoro-4-hydroxypiperidin-1-yl)(6-{[5-(trifluoromethyl)pyridin-2-yl]oxy}quinolin-2-yl)methanone] | 12.1 |
| COCC1(C)CN(C(=O)c2ccc3cc(Oc4ccc(C(F)(F)F)cn4)ccc3n2)C1 [Example 199, [3-(methoxymethyl)-3-methylazetidin-1-yl](6-{[5-(trifluoromethyl)pyridin-2-yl]oxy}quinolin-2-yl)methanone] | 2.55 |
| O=C(c1ccc2cc(Oc3ccc(C(F)(F)F)cn3)ccc2n1)N1CC(Oc2ccccc2)C1 [Example 201, (3-phenoxyazetidin-1-yl)(6-{[5-(trifluoromethyl)pyridin-2-yl]oxy}quinolin-2-yl)methanone] | > 20 |
| CC1(CO)CN(C(=O)c2ccc3cc(Oc4ccc(C(F)(F)F)cn4)ccc3n2)C1 [Example 207, [3-(hydroxymethyl)-3-methylazetidin-1-yl](6-{[5-(trifluoromethyl)pyridin-2-yl]oxy}quinolin-2-yl)methanone] | 3.65 |
| O=C1NCCN(C(=O)c2ccc3cc(Oc4ccc(C(F)(F)F)cn4)ccc3n2)C1c1ccccc1 (stereo not shown) [Example 208, 3-phenyl-4-[(6-{[5-(trifluoromethyl)pyridin-2-yl]oxy}quinolin-2-yl)carbonyl]piperazin-2-one] | 3.05 |
